Laboratory results from PMC10609081, “In Vivo Trafficking of the Anticancer Drug Tris(8-Quinolinolato) Gallium (III) (KP46) by Gallium-68/67 PET/SPECT Imaging” (Molecules, 2023).

Assays:
[1] = PET imaging and ex vivo biodistribution 4 h after oral administration of [68Ga]KP46, tracer (group C) and bulk (group D); format: in vivo, mice; conditions: n = 3
Method: The tracer-level samples for oral administration were prepared in the same manner but with 20 μL of KP46-free DMSO in place of the KP46 solution in DMSO.
(§1) All animal experiments were performed in accordance with the Animals (Scientific Procedures) Act, 1986, with protocols approved by the Animal Welfare and Ethical Review Body for King’s College London under project and personal licences approved by the UK Home Office. Tumour xenograft studies were performed on female NSG mice or female athymic nude mice after injecting them subcutaneously in the right shoulder with 2.5 × 10^6 A375 cells in 100 µL of PBS. All in vivo studies were conducted between 14 and 24 days after inoculation, with tumour volumes between 100 mm^3 and 580 mm^3 (see Supplementary Materials, Figure S11).
Oral [^68/67Ga]KP46: The protocol for oral administration experiments reported here was devised on the basis of pilot experiments described in Supplementary Materials (Figure S12). For short-term (up to 4 h) studies with ^68Ga, awake (nonanaesthetised, to avoid suppressive effects of anaesthesia on digestive tract activity) mice that had been fasted for up to 14 h were given [^68Ga]KP46 (5–13 MBq) (group C, “tracer”, n = 3) or [^68Ga]KP46 and KP46 (5–8.5 MBq) (group D, “bulk”, n = 3) by oral gavage. The dose given orally to group D animals, prepared as described above, was 0.4 μmol in 400 μL, molar activity ca. 25 MBq/μmol. The mice were fasted for three hours before being anaesthetised and PET/CT scanned dynamically for one hour (see below for scanning protocol). After scanning, mice in both groups were culled by neck dislocation while still anaesthetised four hours post-oral administration for organ harvesting and gamma counting. Samples of blood, urine and contents of stomach, small intestine and large intestine (the organs/tissue with measurable activity; tumours were not included as they were insufficiently radioactive) from the mice in group C were used for octanol extraction (shake-flask method) to separate water-soluble (released) and lipid-soluble (intact KP46) ^68Ga. Serum samples were prepared by placing blood samples in a serum separator tube (brand VS367954, Fisher Scientific Ltd., Loughborough, UK) and centrifuging at 3000 rpm for 10 min. Serum (200–300 µL) and urine samples (150–180 µL, taken from the excised bladders) were directly added to Eppendorf tubes containing a pre-equilibrated mixture of octanol (500 µL) and water (500 µL). The tubes were vortexed for two minutes on a Multi Vortex Mixer V-32 (Grant Bio). After separation of layers, a sample of 400 µL from each layer was transferred to fresh Eppendorf tubes and analysed with a gamma counter. Stomach content (72–77 mg), small intestine content (35–88 mg), and large intestine content (86–100 mg) samples from each mouse were analysed similarly by adding them directly to Eppendorf tubes containing a pre-equilibrated mixture of octanol (500 µL) and water (500 µL) before vortexing and centrifuging at 10,000 rpm for 10 min at 4 °C. From each layer, 430 µL was transferred to fresh Eppendorf tubes and analysed with a gamma counter; the solid residues were also counted. Tissues from mice in group D were used after radioactive decay for measurements of nonradioactive ^69Ga content.
PET/CT images were acquired with a nanoScan® PET/CT (Mediso Medical Imaging Systems, Budapest, Hungary) scanner operating in list mode using a 400–600 keV energy window and a coincidence window of 1:3. CT scans were acquired for anatomical reference and attenuation correction (55 keV X-ray, exposure time 1000 ms, and 360 projections and pitch 1). PET projection data were reconstructed using the Tera-tomo® software package provided with the scanner —a Monte Carlo-based fully 3D iterative algorithm with four iterations, six subsets, and 0.4 mm isotropic voxel size; corrections for attenuation, scatter, and dead-time were enabled. […]

[2] = PET imaging and ex vivo biodistribution 4 h after intravenous injection, NSG mice bearing A375 xenografts (groups A, B); format: in vivo; conditions: i.v., tracer level
Method: as §1
Intravenous [^68Ga]gallium acetate and [^68Ga]KP46: NSG mice bearing A375 xenografts were fasted for 12–14 h before the start of the experiment. Mice were anaesthetised with isoflurane and injected with tracer level [^68Ga]gallium acetate (group A, n = 5) or [^68Ga]KP46 (group B, n = 5) (13–18 MBq, <200 μL) via the tail vein. […] The organs were harvested, weighed, and gamma counted. […]
PET/CT images were acquired with a nanoScan® PET/CT (Mediso Medical Imaging Systems, Budapest, Hungary) scanner operating in list mode using a 400–600 keV energy window and a coincidence window of 1:3. […] The data were then visualised and quantified using VivoQuant^© v.2.50 (InviCro, Boston, MA, USA) software. […] Images were coregistered and analysed using VivoQuant v2.50 (InviCro, Needham, MA, USA).

## [68Ga+3].[O-]c1cccc2cccnc12.[O-]c1cccc2cccnc12.[O-]c1cccc2cccnc12 [[^68Ga]KP46]
[1]; bulk (group D)
  68Ga activity delivered to tumour: 0.5 ± 0.3 %ID/g
  68Ga activity in small intestine: 18.4 ± 5 %ID/g
  68Ga activity in stomach: 11.9 ± 8.1 %ID/g
[1]; bulk (group D, combined with KP46 0.4 μmol)
  68Ga activity in large intestine: 56.5 ± 21.4 %ID/g
[1]; tracer level (group C)
  uptake in large intestine, ex vivo: 61.7 ± 21.5 %ID/g
  uptake in small intestine, ex vivo: 12.8 ± 4.1 %ID/g
[2]; 4 h, n = 5
  tumour uptake, ex vivo biodistribution: 2.6 ± 0.9 %ID/g
[2]; by four hours
  tumour uptake of 68Ga by PET/CT: no visible tumour accumulation
